From patent US20260166182A1, “CYANINE-BASED FLUOROPHORES” (The General Hospital Corporation, priority 2022, published 2026)

Legend:
[1] = Optical study in EtOH, DMSO, HEPES and PBS; type: physicochemical
Description: (§1) Optical Study, Photostability, Physicochemical Properties, and DFT Calculation: 1 mM stock solution in DMSO of the synthesized fluorophores was prepared before starting any spectral measurement. Optical properties for the synthesized fluorophores were measured in four different solvents (EtOH, DMSO, HEPES, and PBS). Absorbance spectra were measured in a Varian Cary 50 absorbance spectrophotometer (190-1100 nm). Fluorescence emission and photostability were measured and emission spectra were recorded on a Shimadzu RF-5301PC spectrofluorometer. Physicochemical properties (Log D, molecular mass, TPSA, H bond D/A, polarizability, molecular volume, and rotatable bonds) were predicted by ChemAxon (JChem plugin). Theoretical calculations of frontier molecular orbitals (FMOs) for the optimized structures of selected fluorophores were calculated based on DFT calculations at the B3LYP/6-311G(d,p) level.
In vivo success of a contrast agent can depend on the absorption and emission profiles, molar extinction coefficient, quantum yield, molecular brightness, physicochemical properties, and photochemical stability. Different types of polymethine bridges can have an impact on the structural geometry of the fluorophores and the absorption and emission profiles. Optical properties were measured in polar protic EtOH, polar aprotic DMSO, and two buffer solutions, phosphate-buffered saline (PBS, PH ˜7.4) and 4-(2-hydroxyethyl)-1-piperazine-ethanesulfonic acid (HEPES, PH ˜7.4). Organic solvents such as ethanol (EtOH) and dimethyl sulfoxide (DMSO) are often used in spectroscopic experiments to observe the absorption and emission maximum, whereas buffer solvents PBS and HEPES were used to mimic the biological environment, as these synthesized fluorophores are intended to be used in bioimaging. The absorbance profiles of these fluorophores were recorded at various concentrations (0.8, 1.6, 2.4, 3.2, 4.0 μM) and the absorbance values obtained were plotted against each of the concentrations. […] Fluorophores 18-21 refer to the labels in Example 4 and FIG. 7D.
The molar extinction coefficient is an intrinsic property of any fluorophore and can be important for high image resolution. […] These properties vary with the structure change and are difficult to predict beforehand. The optical properties of the synthesized fluorophores were measured in various media. All measurements were performed in 2 different organic solvents (EtOH and DMSO) and 2 different buffer (HEPES and PBS), and ICG was used as a reference (ΦICG=0.043).

[2] = Photostability under xenon lamp irradiation; type: physicochemical; conditions: 2 h
Description: as §1
In consideration of theranostic (therapeutics and diagnostic) applications, NIR cyanine fluorophores are synthesized for fluorescence imaging, photodynamic therapy (PDT), photothermal therapy (PTT), optoacoustic imaging, and cancer immunotherapy. One of the approaches before using these fluorophores in those applications is to study their biodistribution and clearance pattern in vivo. […] The power density of 150 W is much higher than the required power for fluorescence imaging, considering that the time it takes for a fluorophore to clear from the background and accumulate in sufficient quantities in the targeted tissues is unknown. […] By considering this, an aliquot of the stock solution (1 mM in DMSO) was diluted in ethanol, and the fluorescence intensity was measured at the excitation wavelength same as their absorption maxima (nm). Photodegradation rates were measured every 20 min intervals for the selected fluorophores based on the % reduced fluorescence intensity starting from 100%. […] The data were collected in every 20 min intervals under continuous irradiation with a xenon lamp at 150 W for 2 h and presented based on the % reduced fluorescence intensity starting from 100%. […]

[3] = tested on: immune cells from bone marrow and tumor tissues; assay: Flow cytometry analysis of fluorophore-targeted immune cells from bone marrow and tumor; type: in vivo, mouse
Description: Flow cytometry analysis: Bone marrow tissue was mechanically dissociated and digested with collagenase D (175 unit/mL, Roche) and DNase I (100 unit/mL, Roche) followed by EDTA (2 mM, Invitrogen). Erythrocytes were removed using RBC Lysis Buffer (Invitrogen). Tumor tissue was mechanically dissociated and digested with collagenase I (175 unit/mL, Thermo-fisher), Collagenase IV (250 unit/mL, Thermo-fisher, 1700019), and DNase I (100 unit/mL) followed by EDTA ([…]). Immune cells were isolated from cell suspensions of the bone marrow or tumor tissue using Ficoll® Paque Plus (GE Healthcare). Isolated cells were stained with anti-mouse F4/80 (BM8, Biolegend, 123131), anti-mouse Ly-6G (1A8, Biolegend, 127639), anti-mouse Ly-6C(HK1.4, Biolegend, 128011), anti-mouse CD11c (N418, Biolegend, 117313), anti-mouse CD103 (2E7, Biolegend, 121425), anti-mouse I-A/I-E (M5/114.15.2 Biolegend, 107611), anti-mouse/human CD11b (M1/70, Biolegend, 101254) and anti-mouse CD45 antibodies (30-F11, Biolegend, 103105) conjugated to fluorophores. Isolated cells were stained with Live/dead®-Aqua (Life Technologies) to distinguish live cells. Stained cells were fixed using 1% paraformaldehyde prior to analysis. Data acquisition was performed on a Fortessa cytometer (BD) followed by analysis on FlowJo software (Tree Star).

In the case of `CCCCN1/C(=C/C=C2\CCCC(/C=C/C3=[N+](CCCC)c4ccc(Cl)cc4C3(C)C)=C2Cl)C(C)(C)c2cc(Cl)ccc21` [SH1, 1-butyl-2-((E)-2-((E)-3-(2-((E)-1-butyl-5-chloro-3,3-dimethylindolin-2-ylidene)ethylidene)-2-chlorocyclohex-1-en-1-yl)vinyl)-5-chloro-3,3-dimethyl-3H-indol-1-ium], the molar extinction coefficient ([1]; DMSO) is reported as 203,000 cm^−1 M^−1, the molar extinction coefficient ([1]; EtOH) is reported as 270,000 cm^−1 M^−1 and the Stokes shift ([1]; HEPES) is reported as 140 nm. For the same compound, the absorbance maximum ([1]; HEPES) was 661 nm, the emission wavelength ([1]; HEPES) was 802 nm and the molar extinction coefficient ([1]; HEPES) was 44,000 cm^−1 M^−1. For the same compound, the molar extinction coefficient ([1]; PBS) was 41,000 cm^−1 M^−1, the “photodegradation (% reduced fluorescence intensity)” value [2] was “I-4” and the “targeted tumor-associated immune cells” value ([3]; CD11b+ DCs) was 45.4%. The “targeted tumor-associated immune cells” value ([3]; CD103+ DCs) was 23.8%, the “targeted tumor-associated immune cells” value ([3]; Ly6C^high monocyte) was 48.6% and the “targeted tumor-associated immune cells” value ([3]; Ly6C^low monocyte) was 43.1%. For the same compound, the “targeted tumor-associated immune cells” value ([3]; Macrophage) was 45.7% and the “cells identified as targeted TAICs in the tumor region” value ([3]; tumor) was “macrophages, Ly6C^low monocytes, and dendritic cells”.
